What is called Cmax is the highest concentration seen after dosing. For orientation: IC50 means the midpoint of a concentration-inhibition curve. Higher therefore signals weaker potency.

In data set [1] the test system is JAK. Particulars: in vitro effect of PGE2; cited from earlier work.
For data set [2] the following is noted: single IV dose in clinical trial: ceftriaxone 2 g, aztreonam 500 mg, cefotetan 1 g; read-out: Cmax in human plasma; cited from earlier work.
Data set [3] addresses T1, human mPGES-1 (Homo sapiens, UniProt O14684).
T1 sequence (O14684 1-152): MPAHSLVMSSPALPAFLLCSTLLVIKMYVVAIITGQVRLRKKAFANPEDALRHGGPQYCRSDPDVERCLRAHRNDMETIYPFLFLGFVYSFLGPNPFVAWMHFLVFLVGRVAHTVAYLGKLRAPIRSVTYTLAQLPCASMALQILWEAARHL
Put plainly: in vitro activity assay (ELISA) against human mPGES-1. Format: biochemical. How it is done: The inhibitory activity of these drugs against human mPGES-1 was determined in vitro using the previously described in vitro activity procedure, an enzyme-linked immunosorbent assay (ELISA). (Ding et al., 2018a; Ding et al., 2018b; Zhou et al., 2017).
A general note: In an ELISA, binding on a coated surface is turned into a signal by an enzyme label.

For data set [4], the system named is carrageenan-induced hyperalgesia. Nature of the data set: carrageenan-induced hyperalgesia, pre-treatment (paw withdrawal latency). As to conditions: for effect on carrageenan-induced hyperalgesia (PWL): IP 1 h before 1% carrageenan, ceftriaxone 200 mg/kg, cefotetan 100 mg/kg, oxycodone 5 mg/kg. In kind it is in vivo, wild-type rats.
Data set [5] deals with carrageenan-induced paw edema. Nature of the data set: carrageenan-induced paw edema, pre-treatment (percent increase in paw volume). Particulars: IP 1 h before 1% carrageenan; ceftriaxone 200 mg/kg, cefotetan 100 mg/kg, oxycodone 5 mg/kg. In kind it is in vivo, wild-type rats. (In general: Carrageenan injected into the paw causes an acute inflammation.)
Data set [6] relates to carrageenan-induced hyperalgesia. Nature of the data set: post-treatment model of carrageenan-induced hyperalgesia. In kind it is in vivo, wild-type rats. Particulars: for pain relief (PWL), post-treatment: treated IP 23 h after carrageenan, ceftriaxone 100 or 200 mg/kg, cefotetan 50 or 100 mg/kg, oxycodone 5 mg/kg. As to the method:
To better model the clinical treatment of pain, ceftriaxone (FIG. 4) and cefotetan (FIG. 5) were also tested in a post-treatment model of carrageenan-induced hyperalgesia. Rats were first injected with carrageenan to induce the hyperalgesia/pain.

Data set [7] has as its system CFA-induced knee joint arthritis. Put plainly: CFA (adjuvant)-induced knee joint arthritis, arthritis score. Format: in vivo, wild-type rats. Particulars: IP daily on Days 3 to 6 after CFA on Day 0. How it is done:
FIG. 6 illustrates the anti-inflammatory and analgesic effects (in terms of arthritis score) of ceftriaxone and cefotetan on CFA-induced knee joint arthritis in wild-type rats (n=10 for each group). CFA was injected to the knee joint on Day 0. Drug or vehicle (control) was injected (IP) daily on Days 3 to 6. Arthritis score (mean spontaneous pain rating) measured on Days 0 to 6, 8, 10, and 12.
Ceftriaxone and cefotetan were further tested using an adjuvant-induced knee joint arthritis model described by Hammell et al. 2016. Using this one-week knee joint arthritis model, CFA was injected to the knee joint on Day 0 to induce chronic arthritis and associated pain, followed by daily PWL and arthritis score (mean spontaneous pain rating) assessments from Day 0 to Day 7.
Daily treatment with ceftriaxone and cefotetan or vehicle (control group) started on Day 3 (after the arthritis score assessment on that day) and continued until Day 6. There were a total of four doses of the respective treatment from Day 3 to Day 6. […] On Day 3, the arthritis score reached the peak (reflecting the most severe arthritis), which is consistent with previous observations reported for the control group. (Hammell et al., 2016).

The subject of data set [8] is SARS-CoV-2. Format: cell-based. As to conditions: cell culture; data not shown.
In data set [9] the test system is AngII-induced AAA. Put plainly: angiotensin (AngII)-induced abdominal aortic aneurysm model. As to conditions: AngII minipump 28 days; ceftriaxone given beginning on Day 5. Format: in vivo, ApoE-deficient mice. As to the method:
FIG. 7 illustrates the anti-inflammatory effects of ceftriaxone in terms of maximum aortic diameter.
Ceftriaxone was also tested in treatment of angiotensin (AngII)-induced AAA model. This experiment was performed using ApoE-deficient mice. AngII (with a minipump to continuously release the AngII solution within 28 days) was used to induce AAA in this strain of mice beginning Day 0 for all animals in both control and intervention groups.
The AAA was characterized by the maximum aortic diameter […] detected by the ultrasound method. Ceftriaxone was given beginning on Day 5 for intervention.

Data set [10] has as its system proinflammatory cytokines (including TNF-α), GLT-1. As to conditions: animal models of inflammation and pain/hyperalgesia; cited from earlier work.
For data set [11], the system named is chronic inflammatory arthritis. As to conditions: placebo-controlled, double-blind study; cited from earlier work.
The conditions of data set [12]: mouse, in vivo; cited from earlier work.

In the case of `N#C/C(=C/c1ccc(O)c(O)c1)C(=O)NCc1ccccc1` [AG490], the “block of PGE2-induced inflammatory hyperalgesia effect” value in data set [1] is “able to block this in vitro effect of PGE2”.

For `C[C@H]1[C@H](NC(=O)/C(=N\OC(C)(C)C(=O)O)c2csc(N)n2)C(=O)N1S(=O)(=O)O` [aztreonam], the peak concentration (Cmax) in [2] was 129 µM.

For `CO[C@@]1(NC(=O)C2SC(=C(C(N)=O)C(=O)O)S2)C(=O)N2C(C(=O)O)=C(CSc3nnnn3C)CS[C@@H]21` (stereo partly shown) [cefotetan], the midpoint of inhibition in [3], the IC50, lay at 13.5 µM. The “effect on carrageenan-induced hyperalgesia (PWL)” value (from here on “effect … (PWL)”) in [4] was “has the desired anti-inflammatory and analgesic effects”. In addition, the “effect on carrageenan-induced paw edema (percent increase in paw volume)” value in data set [5] was “has the desired anti-inflammatory and analgesic effects”. In [6], the “pain relief (PWL), post-treatment” value was “significantly, and dose-dependently, relieved the pain”. For the same compound, the “arthritis score (mean spontaneous pain rating)” value in data set [7] is given as “mean spontaneous pain rating was reduced”. In [2], the Cmax is 440 µM.

Consider `CO/N=C(\C(=O)N[C@@H]1C(=O)N2C(C(=O)O)=C(CSc3nc(=O)c(=O)[nH]n3C)CS[C@H]12)c1csc(N)n1` [ceftriaxone], for which the “cytoprotective activity against SARS-CoV-2 infection” value in [8] is “cytoprotective against SARS-CoV-2 infection”. The “effect … (PWL)” value in [4] is given as “completely suppressed carrageenan-induced hyperalgesia”. For the same compound, the “effect on carrageenan-induced paw edema (percent increase in paw volume)” value in data set [5] is given as “significantly decreased the percent increase in the paw volume”. Moreover, the “pain relief (PWL), post-treatment” value in data set [6] was “significantly, and dose-dependently, relieved the pain”. In data set [7], the “arthritis score (mean spontaneous pain rating)” value is given as “mean spontaneous pain rating was reduced”. Further, the “progression of AAA (maximum aortic diameter, ultrasound)” value in data set [9] was “significantly stopped the progression of AAA, and it even reversed the AAA”. Besides, in data set [2], the Cmax was 463 µM. Moreover, the “effect on proinflammatory cytokines and GLT-1” value in data set [10] was “effectively attenuated the proinflammatory cytokines (including TNF-α) and reversed the downregulation of GLT-1”. The “clinical efficacy in chronic inflammatory arthritis” value in [11] was “efficacious in treatment of chronic inflammatory arthritis”.

Turning to `Cc1ccc(-c2cc(C(F)(F)F)nn2-c2ccc(S(N)(=O)=O)cc2)cc1` [celecoxib], in [12], the toxicity in mice result was “very toxic for stomach and other issues of mice, and bleeding ulcer was observed at gastric mucosa”.

For the compound `COc1ccc2c3c1O[C@H]1C(=O)CC[C@@]4(O)[C@@H](C2)N(C)CC[C@]314` [oxycodone], the “effect … (PWL)” value in [4] is given as “effectively relieved the pain within six hours after oxycodone injection”. Also, the “pain (PWL) at 23 h” value in [4] (oxycodone 5 mg/kg IP pre-treatment, 23 h (next day)) is on record as “still significant pain at 23 h”. For the same compound, the PWL peak time in data set [6] (oxycodone 5 mg/kg IP, post-treatment) is 1 h. Further, in data set [6], the “pain relief (PWL), post-treatment” value was “significantly relieved the pain”.
